Laboratory results from ChEMBL document CHEMBL1137251, “Synthesis of rigid trichostatin A analogs as HDAC inhibitors” (Bioorg Med Chem Lett, 2006).
Activity calls are given as the source filed them. The calls are words filed in the database; no cut-off is given here.

Tests used:
[1] = Antiproliferative activity against H661 cells; type: functional, cell-based; details: Homo sapiens, NCI-H661
[2] = target: Histone H4 (Homo sapiens) (UniProt P62805); test: Acetylation of histone H4 at 0.3 uM by Western blot analysis
[3] = target: Histone H4 (Homo sapiens) (UniProt P62805); test: Acetylation of histone H4 at 5 uM by Western blot analysis
[4] = test system: HCT-116; test: Antiproliferative activity against HCT116 cells; type: functional, cell-based; details: Homo sapiens
[5] = Antiproliferative activity against H1299 cells; type: functional, cell-based; details: Homo sapiens, NCI-H1299
[6] = target: Histone H4 (Homo sapiens) (UniProt P62805); test: Acetylation of histone H4 at 2.5 uM by Western blot analysis

| Compound | IC50 [1] [nM] | further results |
| --- | --- | --- |
| C=C(/C=C/C(=O)Nc1ccccc1N)CC1(C)Cc2ccccc2C1=O (centres undefined) | > 10000 | – |
| CC(/C=C/C(=O)NO)=C\C1(C)Cc2cc(N(C)C)ccc2C1=O (centres undefined) | – | Activity [2]: Active |
| CC(/C=C/C(=O)NO)=C\C1(C)CCc2ccccc2C1=O (centres undefined) | 3000 | Activity [3]: Active |
| CC(/C=C/C(=O)NO)=C\C1(C)Cc2ccccc2C1=O (centres undefined) | 1650 | – |
| CC(/C=C/C(=O)NO)=C\[C@@H](C)C(=O)c1ccc(N(C)C)cc1 [TRICHOSTATIN] | < 300 | IC50 [4]: 1.3 nM; IC50 [5]: 100 nM |
| CC(/C=C/C(=O)Nc1ccccc1N)=C\C1(C)Cc2ccccc2C1=O (centres undefined) | 3000 | – |
| CC(/C=C/C(=O)Nc1ccccc1N)=C\C1(C)CCc2ccccc2C1=O (centres undefined) | 5000 | – |
| CC(/C=C/C(=O)Nc1ccccc1N)=C\C1(C)Cc2cc(F)ccc2C1=O (centres undefined) | 7000 | – |
| CC(/C=C/C(=O)NO)=C\C1(C)Cc2cc(F)ccc2C1=O (centres undefined) | 1500 | Activity [6]: Active |
| CC(/C=C/C(=O)Nc1ccccc1N)=C\C1(C)Cc2cc(N(C)C)ccc2C1=O (centres undefined) | 2500 | – |
